Reference: PMC9464843, “Escitalopram co-prescription in anastrozole-treated breast cancer patients” (Northern Clinics of Istanbul, 2022)
Like-named read-outs stand apart in the source and are kept apart here.

What was measured:
CYP2D6 [1] = tested on: CYP2D6; parameters: method as in PMID 11454728; settings: cited from earlier work
histaminergic receptors = tested on: histaminergic receptors; parameters: method as in PMID 16266205; settings: cited from earlier work
serum estradiol = assay: Serum estradiol levels before and after escitalopram; type: in vivo, human (post-menopausal breast cancer patients)
Protocol: (§1) Data on age, body mass index (BMI; kg/m^2), stage of tumor, previous anti-neoplastic treatments, and concomitant medications were collected in each patient at study enrollment. Blood samples were collected twice, before and 1-month after the onset of escitalopram treatment to analyze change in plasma anastrozole as well as estradiol levels under escitalopram treatment. Anastrozole levels were also analyzed with respect to baseline characteristics including age (≤57 years vs. >57 years), BMI (≤29.9 kg/m^2 vs. >29.9 kg/m^2), radiotherapy (left vs. right breast, the side indicates the affected organs, none), chemotherapy (applied vs. none), tamoxifen (applied vs. none), tumor stage, estradiol levels (≤10 pg/mL vs. >10 pg/mL), concomitant medications (present vs. none) and in patients discontinued versus continued 1-month escitalopram treatment.

CYP 1A2 = tested on: CYP 1A2; parameters: method as in PMID 17375980; settings: cited from earlier work
CYP2D6 [2] = settings: cited from earlier work; for Ability to inhibit the CYP2D6 enzyme: SSRI antidepressants
CYP 2C19 = tested on: CYP 2C19; parameters: method as in PMID 17375980; settings: cited from earlier work
cholinergic receptors = tested on: cholinergic receptors; parameters: method as in PMID 16266205; settings: cited from earlier work
[3] = parameters: method as in earlier work; settings: escitalopram 20 mg daily for 12 weeks; hot flushes; cited from earlier work
[4] = Liver and kidney functions after escitalopram; type: in vivo, human (post-menopausal breast cancer patients); settings: continuers n=17; 1 month escitalopram with anastrozole
adrenergic receptors = tested on: adrenergic receptors; parameters: method as in PMID 16266205; settings: cited from earlier work
CYP2C19 = tested on: CYP2C19; parameters: method as in PMID 11454728; settings: cited from earlier work
CYP 2C9 = tested on: CYP 2C9; parameters: method as in PMID 17375980; settings: cited from earlier work
[5] = tested on: depression-related symptoms; parameters: method as in PMID 22142651; settings: escitalopram 5–20 mg/day; breast cancer patients; cited from earlier work
CYP 3A4 = tested on: CYP 3A4; parameters: method as in PMID 17375980; settings: cited from earlier work
[6] = Completion / discontinuation of 1-month escitalopram treatment; type: in vivo, human (post-menopausal breast cancer patients); settings: n=24
Protocol: as §1
Patients were on anastrozole (1 mg/day) for at least 1 month (30±2 days), while escitalopram was initiated with a dose of 10 mg/day for the first 7 days and then the dose was gradually elevated to 20 mg/day to enable tolerance.

CYP3A4 = tested on: CYP3A4; parameters: method as in PMID 11454728; settings: cited from earlier work
[7] = female, human, in vivo
Protocol: (§2) A total of 24 operated post-menopausal breast cancer patients who were co-prescribed with escitalopram while taking anastrozole for at least 1 month were included in this study. The inclusion criteria were being on anastrozole treatment (1 mg/day) for at least 1 month (30±2 days), being younger than age of 75, having no implementation of radiotherapy or chemotherapy in the past 3 months before the study enrollment and having normal renal and hepatic functions.
(§3) Plasma anastrozole levels were measured twice, once before and once 1 month (30±2 days) after the onset of escitalopram by high-performance liquid chromatography (HPLC). The blood samples were centrifuged at 4500 g for 5 min within the 1 hour following the sampling and stored at -80°C until analysis. The plasma samples were extracted by using diethyl ether:dichloromethane (80:20, v:v) and high-performance liquid chromatography analyses were performed in Agilent Triple Quadrupole Mass Spectrometry system. A reverse phase C18 column (poroshell SB-C18, 2.7µm, 3.0 × 100 mm) was used within the system. The mobile phase was comprised of 5 mM ammonium acetate and acetonitrile at a ratio of 15:85 (v:v). Tolterodine was used as an internal standard. The external standard calibration interval was 0.5–50 ng/mL (r^2: 0.9930). Before analysis, 5 mL venous blood samples were collected into Na-EDTA-containing glass tubes and the blood samples were centrifuged at 4500 g for 5 min within an hour following the sampling and stored at -80°C until analysis.
(§4) The time between the last dose of anastrozole and blood sampling was recorded. As there was a variation between the last anastrozole dose and the blood sampling time, the maximum plasma concentrations (Cmax) were extrapolated by using the following pharmacokinetic formula:

[8] = breast cancer patients, cited from earlier work
clinical = settings: female, human, in vivo
Protocol: as §2, §3, §4

[9] = cited from earlier work
[10] = under anastrozole 1 mg/day, n=24

Question: What does the source list for `CN(C)CCC[C@@]1(c2ccc(F)cc2)OCc2cc(C#N)ccc21` [escitalopram]?
Answer: Share of CYP2D6 in bio-transformation of escitalopram (CYP2D6 [1]): 28%; Affinity for histaminergic receptors (histaminergic receptors): low affinity; Change in estradiol levels after escitalopram administration (serum estradiol; continuers n=17, 1 month escitalopram with anastrozole): no change; Inhibition of CYP 1A2 (CYP 1A2): weak or negligible inhibition; Ability to inhibit the CYP2D6 enzyme (CYP2D6 [2]): weak inhibition; Inhibition of CYP 2D6 (CYP2D6 [2]): weak or negligible inhibition; Inhibition of CYP 2C19 (CYP 2C19): weak or negligible inhibition; Affinity for cholinergic receptors (cholinergic receptors): low affinity; Patients who discontinued treatment due to side effects such as nausea and somnolence [3]: 14%; Change in liver and kidney functions after escitalopram administration [4]: No significant change; Affinity for adrenergic receptors (adrenergic receptors): low affinity; Share of CYP2C19 in bio-transformation of escitalopram (CYP2C19): 37%; Inhibition of CYP 2C9 (CYP 2C9): weak or negligible inhibition; Time to amelioration of depression-related symptoms [5]: ≤ 1 week; Inhibition of CYP 3A4 (CYP 3A4): weak or negligible inhibition; Patients who completed the 1-month escitalopram treatment [6]: 70.8%; Patients who discontinued escitalopram within the 1st week of treatment ([6]; 10 mg/day first 7 days): 29.2%; Share of CYP3A4 in bio-transformation of escitalopram (CYP3A4): 35%

Question: With `Fc1ccc([C@@H]2CCNC[C@H]2COc2ccc3c(c2)OCO3)cc1` [paroxetine] as the compound, how does the “Ability to inhibit the CYP2D6 enzyme” value (CYP2D6 [2]) read?
Answer: strong inhibition

Question: Which “Basal plasma anastrozole level” value [7] does the source give for `CC(C)(C#N)c1cc(Cn2cncn2)cc(C(C)(C)C#N)c1` [Anastrozole, anastrozole] here?
Answer: 52.2 ng/mL

Question: What about the “Plasma anastrozole, post-escitalopram” value [7] of the same compound?
Answer: 31.9 ng/mL

Question: What about the “Plasma anastrozole, post-escitalopram” value ([7]; 1 month) of the same compound?
Answer: 27.9 ng/mL

Question: And the “Patients with serum estradiol levels >10 pg/mL” value (serum estradiol; [10])?
Answer: 25%

Question: What about the “Patients with serum estradiol levels ≤10 pg/mL” value (serum estradiol; [10]) of the same compound?
Answer: 75%

Question: What about the “Anastrozole concentrations, inter-individual range” value ([8]; past studies) of the same compound?
Answer: 0.0 to 98.8 ng/mL

Question: What about the “Anastrozole plasma steady-state concentration, mean” value ([8]; previous studies) of the same compound?
Answer: 37.4 ng/mL

Question: And the “Anastrozole plasma steady-state concentration, median” value ([8]; previous studies)?
Answer: 32.2 ng/mL

Question: And the concentration at 1 month (clinical; Plasma anastrozole levels, range)?
Answer: 9.1 to 57 ng/mL

Question: And the concentration at 1 month (clinical; Plasma anastrozole, post-escitalopram)?
Answer: 40.4 ng/mL

Question: With `CNCCC(Oc1ccc(C(F)(F)F)cc1)c1ccccc1` (stereo not drawn) [fluoxetine] as the compound, how does the “Ability to inhibit the CYP2D6 enzyme” value (CYP2D6 [2]) read?
Answer: strong inhibition

Question: With `CN(C)CCCC1(c2ccc(F)cc2)OCc2cc(C#N)ccc21` (stereo not drawn) [citalopram] as the compound, how does the “Ability to inhibit the CYP2D6 enzyme” value (CYP2D6 [2]) read?
Answer: weak inhibition

Question: Which “Carbamazepine clearance, non-obese versus obese patients” value [9] does the source give for `NC(=O)N1c2ccccc2C=Cc2ccccc21` [Carbamazepine] here?
Answer: marginally higher

Question: What about the “Carbamazepine clearance after major weight loss” value ([9]; six obese patients) of the same compound?
Answer: significantly increased
